From publication PMC10815964, “Cyclobutanone Inhibitors of Diaminopimelate Desuccinylase (DapE) as Potential New Antibiotics” (International Journal of Molecular Sciences, 2024)

Key:
HiDapE = HiDapE (Haemophilus influenzae, UniProt P44514); experiment: DapE inhibition, ninhydrin-based assay; format: biochemical; settings: for inhibition at 100 µM: 100 µM inhibitor, read-out: DapE % Inhib at 100 µM; for IC50: ninhydrin assay
Experimental: All compounds were screened for DapE inhibitory potency using a ninhydrin-based assay at 100 μM, and IC50 values were determined for molecules that inhibited DapE > 70% at 100 μM (Table 1). Some SAR trends emerge from the data.
Experimental IC50 curves for cyclobutanone inhibitors against DapE were identified as sigmoidal shaped response curves, as opposed to simple hyperbolic plots. […] IC50 curves with the corresponding Hill coefficients are reported in the Supplementary Materials as Figures S74−S81. Experimental Hill coefficients may provide information on the number of binding sites of a biological target (receptors and enzymes) interacting with ligands.
The inhibition of HiDapE by potential inhibitors was assessed using the previously developed ninhydrin assay with slight modifications. It was performed in a PCR Thermal Cycler System. All experiments were performed in triplicate in 50 mM HEPES buffer at pH 7.5. Reaction volumes were 100 µL of 2 mM N^6-Methyl-L,L-SDAP and 8 nM HiDapE. Ninhydrin was purchased as a 2% solution in 100% DMSO/lithium acetate buffer at pH 5.2. The inhibitor, followed by HiDapE, was added to a 50 mM HEPES (pH 7.5) buffered solution at 30 °C, and the mixture was incubated at 30 °C for 10 min. N^6-Methyl-L,L-SDAP was added, and the reaction mixture was incubated at 30 °C for 10 min, then heated to 99 °C for 1 min, and further cooled to 0 °C for 1 min. The 2% ninhydrin solution (50 µL) was added, and the mixture was thoroughly mixed. The reaction mixture was heated to 80 °C for 15 min, then cooled to 0 °C for 1 min. The absorbance of an 80 μL aliquot was recorded at 570 nm on a BioTek Synergy 2 microplate reader. All the inhibition assays of HiDapE were performed in triplicate and the IC50 values were obtained by fitting the data following the modified Hill equation: V = V0 + (Vmax − V0) XnH/(XnH0.5 + XnH) using the graphing suite Origin 9.1 with the Levenberg–Marquardt non-linear least-squares algorithm. The velocity in the absence of the substrate is […]; the velocity at saturating concentrations of the substrate or with no inhibitor for the inhibition assay is Vmax; X is the concentration of the substrate or inhibitor; and X0.5 is the substrate (S0.5) and inhibitor (I0.5) concentration at 50% maximum velocity and at 50% inhibition, respectively. The Hill coefficient is represented as nH.

Chain of HiDapE (P44514 whole entry): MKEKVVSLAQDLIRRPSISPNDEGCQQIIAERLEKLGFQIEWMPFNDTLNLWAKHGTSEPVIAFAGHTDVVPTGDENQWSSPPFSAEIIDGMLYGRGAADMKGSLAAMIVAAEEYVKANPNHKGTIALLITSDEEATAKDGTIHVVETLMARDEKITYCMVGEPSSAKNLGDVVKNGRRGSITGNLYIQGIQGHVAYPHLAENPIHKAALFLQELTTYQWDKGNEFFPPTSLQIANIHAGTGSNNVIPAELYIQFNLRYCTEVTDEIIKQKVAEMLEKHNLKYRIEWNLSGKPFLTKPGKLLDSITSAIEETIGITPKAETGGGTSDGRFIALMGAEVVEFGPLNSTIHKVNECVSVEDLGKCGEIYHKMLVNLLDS

| SMILES | melting point | inhibition at 100 µM (HiDapE) | IC50 (HiDapE) |
| --- | --- | --- | --- |
| CC(C)[C@@H](NS(=O)(=O)c1ccc(C#N)cc1)C(=O)NC1CCC1=O (mixture of isomers) [3aa, (2R)-2-((4-Cyanophenyl)sulfonamido)-3-methyl-N-(2-oxocyclobutyl)butanamide] | 150 to 151 °C | 5.6% | – |
| COC(=O)c1ccc(S(=O)(=O)N[C@@H](C(=O)NC2CCC2=O)C(C)C)cc1 (mixture of isomers) [3ab, Methyl 4-(N-((2R)-3-methyl-1-oxo-1-((2-oxocyclobutyl)amino)butan-2-yl)sulfamoyl)benzoate] | 190 to 191 °C | 10.7% | – |
| CC(C)[C@@H](NS(=O)(=O)c1ccc(O)cc1)C(=O)NC1CCC1=O (mixture of isomers) [3ac, (2R)-2-((4-hydroxyphenyl)sulfonamido)-3-methyl-N-(2-oxocyclobutyl)butanamide] | 139 to 141 °C | 44.4% | – |
| O=C(N[C@@H](Cc1ccccc1)C(=O)NC1CCC1=O)OCc1ccccc1 (mixture of isomers) [3ad, Benzyl ((2S)-1-oxo-1-((2-oxocyclobutyl)amino)-3-phenylpropan-2-yl)carbamate] | – | 96.2% | 69.8 ± 1.4 µM |
| O=C(N[C@H](Cc1ccccc1)C(=O)NC1CCC1=O)OCc1ccccc1 (mixture of isomers) [3ae, Benzyl ((2R)-1-oxo-1-((2-oxocyclobutyl)amino)-3-phenylpropan-2-yl)carbamate] | – | 97.9% | 55.4 ± 5.5 µM |
| O=C(N[C@@H](Cc1ccc(O)cc1)C(=O)NC1CCC1=O)OCc1ccccc1 (mixture of isomers) [3af, Benzyl ((2S)-3-(4-hydroxyphenyl)-1-oxo-1-((2-oxocyclobutyl)amino)propan-2-yl)carbamate] | – | 15.5% | – |
| CC(C)[C@H](NC(=O)OCc1ccccc1)C(=O)NC1CCC1=O (mixture of isomers) [3ag, Benzyl ((2S)-3-methyl-1-oxo-1-((2-oxocyclobutyl)amino)butan-2-yl)carbamate] | – | 53.9% | – |
| Cc1ccccc1C(=O)NC1CCC1=O (centres unmarked) [3a, 2-Methyl-N-(2-oxocyclobutyl)benzamide] | 100 to 102 °C | 16.8% | – |
| O=C1CCC1NS(=O)(=O)c1ccc(C(F)(F)F)cc1 (centres unmarked) [3ah, N-(2-Oxocyclobutyl)-4-(trifluoromethyl)benzenesulfonamide] | 74 to 76 °C | 22.6% | – |
| O=C1CCC1NS(=O)(=O)c1ccc(F)cc1 (centres unmarked) [3ai, N-(2-Oxocyclobutyl)-4-(fluoro)benzenesulfonamide] | – | 72.9% | 53.3 ± 5.4 µM |
| Cc1cccc(C(=O)NC2CCC2=O)c1 (centres unmarked) [3b, 3-Methyl-N-(2-oxocyclobutyl)benzamide] | 94 to 96 °C | 37.8% | – |
| Cc1ccc(C(=O)NC2CCC2=O)cc1 (centres unmarked) [3c, 4-Methyl-N-(2-oxocyclobutyl)benzamide] | 149 to 150 °C | 58.1% | – |
| O=C(NC1CCC1=O)c1ccccc1Cl (centres unmarked) [3d, 2-Chloro-N-(2-oxocyclobutyl)benzamide] | 102 to 103 °C | 33.6% | – |
| O=C(NC1CCC1=O)c1cccc(Cl)c1 (centres unmarked) [3e, 3-Chloro-N-(2-oxocyclobutyl)benzamide] | 64 to 66 °C | 45.8% | – |
| O=C(NC1CCC1=O)c1ccc(Br)cc1 (centres unmarked) [3f, 4-Bromo-N-(2-oxocyclobutyl)benzamide] | 104 to 105 °C | 25.2% | – |
| COc1ccc(C(=O)NC2CCC2=O)cc1Cl (centres unmarked) [3g, 3-Chloro-4-methoxy-N-(2-oxocyclobutyl)benzamide] | 134 to 136 °C | 29.1% | – |
| COc1cc(Cl)c(C(=O)NC2CCC2=O)cc1OC (centres unmarked) [3h, 2-Chloro-4,5-dimethoxy-N-(2-oxocyclobutyl)benzamide] | 123 to 125 °C | 24.4% | – |
| O=C(NC1CCC1=O)c1ccccc1O (centres unmarked) [3i, 2-Hydroxy-N-(2-oxocyclobutyl)benzamide] | 149 to 151 °C | 28.9% | – |
| COc1ccc(C(=O)NC2CCC2=O)c(O)c1 (centres unmarked) [3j, 2-Hydroxy-4-methoxy-N-(2-oxocyclobutyl)benzamide] | 131 to 133 °C | 73% | 66.4 ± 2.9 µM |
| COc1cc(C(=O)NC2CCC2=O)cc(OC)c1OC (centres unmarked) [3k, 3,4,5-Trimethoxy-N-(2-oxocyclobutyl)benzamide] | 144 to 146 °C | 93.7% | 39.6 ± 2.9 µM |
| O=C(NC1CCC1=O)c1ccccn1 (centres unmarked) [3l, N-(2-Oxocyclobutyl)picolinamide] | 97 to 99 °C | 25.6% | – |

Next, values leading:

| melting point | inhibition at 100 µM (HiDapE) | IC50 (HiDapE) | SMILES |
| --- | --- | --- | --- |
| – | 92.8% | 45.7 ± 1.5 µM | Cc1ccc(S(=O)(=O)N[C@@H](Cc2ccccc2)C(=O)NC2CCC2=O)cc1 (mixture of isomers) [3v, (2S)-2-((4-Methylphenyl)sulfonamido)-N-(2-oxocyclobutyl)-3-phenylpropanamide] |
| – | 55% | > 50 µM | Cc1ccc(S(=O)(=O)N[C@H](Cc2ccccc2)C(=O)NC2CCC2=O)cc1 (mixture of isomers) [3w, (2R)-2-((4-Methylphenyl)sulfonamido)-N-(2-oxocyclobutyl)-3-phenylpropanamide] |
| – | 19.6% | – | Cc1ccc(S(=O)(=O)N[C@@H](Cc2c[nH]c3ccccc23)C(=O)NC2CCC2=O)cc1 (mixture of isomers) [3x, (2S)-3-(1H-Indol-3-yl)-2-((4-methylphenyl)sulfonamido)-N-(2-oxocyclobutyl)propanamide] |
| 179 to 181 °C | 30.7% | – | COc1ccc(S(=O)(=O)N[C@H](C(=O)NC2CCC2=O)C(C)C)cc1 (mixture of isomers) [3z, (2S)-2-((4-Methoxyphenyl)sulfonamido)-3-methyl-N-(2-oxocyclobutyl)butanamide] |
| – | 24.9% | – | O=C(NC1CCC1=O)c1cccnc1 (centres unmarked) [3m, N-(2-Oxocyclobutyl)nicotinamide] |
| 80 to 82 °C | < 5% | – | O=C(NC1CCC1=O)c1cccnc1Cl (centres unmarked) [3n, 2-Chloro-N-(2-oxocyclobutyl)nicotinamide] |
| 114 to 115 °C | 34.6% | – | O=C(NC1CCC1=O)c1cncc(Br)c1 (centres unmarked) [3o, 5-Bromo-N-(2-oxocyclobutyl)nicotinamide] |
| 119 to 121 °C | < 5% | – | O=C(NC1CCC1=O)c1ccncc1 (centres unmarked) [3p, N-(2-Oxocyclobutyl)isonicotinamide] |
| 155 to 156 °C | 48% | – | O=C(NC1CCC1=O)c1cnc2ccccc2c1 (centres unmarked) [3q, N-(2-Oxocyclobutyl)quinoline-3-carboxamide] |
| 89 to 91 °C | < 5% | – | O=C(NC1CCC1=O)c1cccc2cccnc12 (centres unmarked) [3r, N-(2-Oxocyclobutyl)quinoline-8-carboxamide] |
| – | 36.4% | – | Cc1ccc(S(=O)(=O)N[C@@H](Cc2ccccc2)C(=O)NCC2(O)CC2)cc1 [4a, (S)-N-((1-hydroxycyclopropyl)methyl)-2-((4-methylphenyl)sulfonamido)-3-phenylpropanamide] |
| – | 19.1% | – | Cc1ccc(S(=O)(=O)N[C@@H](Cc2ccccc2)C(=O)NCC(C)(C)O)cc1 [4b, (S)-N-(2-hydroxy-2-methylpropyl)-2-((4-methylphenyl)sulfonamido)-3-phenylpropanamide] |
